{"source": "ChEMBL document CHEMBL4033713", "about": "“Click strategy using disodium salts of amino acids improves the water solubility of plinabulin and KPU-300” (Bioorg Med Chem, 2017)", "key": {"[1]": {"assay": "Solubility of the compound in distilled water after 15 mins by HPLC method", "format": "physicochemical"}, "[2]": {"assay": "Solubility of the compound in water", "format": "physicochemical"}, "[3]": {"target": "T1, Liver carboxylesterase (Sus scrofa, UniProt Q29550)", "T1 sequence (Q29550 whole entry)": "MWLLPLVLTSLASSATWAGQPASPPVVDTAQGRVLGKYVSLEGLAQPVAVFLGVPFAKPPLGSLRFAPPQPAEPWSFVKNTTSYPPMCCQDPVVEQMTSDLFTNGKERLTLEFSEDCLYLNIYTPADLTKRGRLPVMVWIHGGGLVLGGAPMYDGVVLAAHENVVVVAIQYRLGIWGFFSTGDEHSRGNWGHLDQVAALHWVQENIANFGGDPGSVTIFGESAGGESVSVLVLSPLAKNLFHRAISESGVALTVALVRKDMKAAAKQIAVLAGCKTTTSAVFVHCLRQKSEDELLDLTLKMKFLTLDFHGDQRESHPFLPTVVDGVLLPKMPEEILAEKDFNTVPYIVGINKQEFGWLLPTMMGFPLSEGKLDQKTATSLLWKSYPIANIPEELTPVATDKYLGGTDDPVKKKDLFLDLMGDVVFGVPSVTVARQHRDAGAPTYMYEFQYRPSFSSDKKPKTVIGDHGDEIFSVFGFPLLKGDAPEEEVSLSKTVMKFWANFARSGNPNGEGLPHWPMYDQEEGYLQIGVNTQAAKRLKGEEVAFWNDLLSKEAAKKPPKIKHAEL", "assay": "Drug level treated with Sodium (S)-2-(4-(4-((((3Z,6Z)-6-benzylidene-3-((5-(tertbutyl)-1H-imidazol-4-yl)methylene)-5-oxo-3,4,5,6-tetrahydropyrazin-2-yl)oxy)methoxy)-4-oxobutyl)-1H-1,2,3-triazol-1-yl)pentanedioate assessed as porcine liver carboxylic-ester hydrolase-mediated metabolite formation after 48 hrs by HPLC method", "conditions": "pig"}, "[4]": {"target": "T1, Liver carboxylesterase", "assay": "Drug level treated with Sodium (S)-2-(4-(4-((((3Z,6Z)-6-benzylidene-3-((5-(tertbutyl)-1H-imidazol-4-yl)methylene)-5-oxo-3,4,5,6-tetrahydropyrazin-2-yl)oxy)methoxy)-4-oxobutyl)-1H-1,2,3-triazol-1-yl)succinate assessed as porcine liver carboxylic-ester hydrolase-mediated metabolite formation after 48 hrs by HPLC method", "format": "ADME", "conditions": "pig"}, "[5]": {"target": "T1, Liver carboxylesterase", "assay": "Drug metabolism assessed as porcine liver carboxylic-ester hydrolase-mediated compound hydrolysis by measuring half-life by HPLC analysis", "format": "ADME", "conditions": "pig, porcine liver carboxylic-ester hydrolase (liver esterase)"}, "[6]": {"target": "T1, Liver carboxylesterase", "assay": "Drug level treated with Sodium (S)-2-(4-(4-((((3Z,6Z)-6-(3-benzoylbenzylidene)-5-oxo-3-(pyridine-2-ylmethylene)-3,4,5,6-tetrahydropyrazin-2-yl)oxy)methoxy)-4-oxobutyl)-1H-1,2,3-triazol-1-yl)succinate assessed as porcine liver carboxylic-ester hydrolase-mediated metabolite formation after 48 hrs by HPLC method", "format": "ADME", "conditions": "pig"}, "[7]": {"target": "T1, Liver carboxylesterase", "assay": "Stability of the compound assessed as porcine liver esterase-mediated hydrolysis by measuring compound remaining after 48 hrs by HPLC method", "format": "ADME", "conditions": "pig, read-out: Stability"}, "[8]": {"target": "T1, Liver carboxylesterase", "assay": "Drug metabolism assessed as porcine liver carboxylic-ester hydrolase-mediated compound hydrolysis by measuring half-life at 500 ug by HPLC analysis", "format": "ADME", "conditions": "pig, porcine liver carboxylic-ester hydrolase (liver esterase)"}}, "data": [{"smiles": "CC(C)(C)c1[nH]cnc1/C=c1\\[nH]c(=O)/c(=C/c2ccccc2)nc1OCOC(=O)CCCc1cn(CC(=O)[O-])nn1.[Na+]", "values": [{"measurement": "solubility at 0.25 h", "setting": "[1]", "value": 590, "unit": "µg/mL"}]}, {"smiles": "CC(C)(C)c1[nH]cnc1/C=c1\\[nH]c(=O)/c(=C/c2ccccc2)[nH]c1=O", "note": "[PLINABULIN]", "values": [{"measurement": "solubility", "setting": "[2]", "value": "< 0.1", "unit": "µg/mL"}, {"measurement": "Drug metabolism", "setting": "[3]", "value": "Metabolite_Detected"}, {"measurement": "Drug metabolism", "setting": "[4]", "value": "Metabolite_Detected"}]}, {"smiles": "CC(C)(C)c1[nH]cnc1/C=c1\\[nH]c(=O)/c(=C/c2ccccc2)nc1OCOC(=O)CCCc1cn([C@@H](CCC(=O)[O-])C(=O)[O-])nn1.[Na+].[Na+]", "values": [{"measurement": "solubility at 0.25 h", "setting": "[1]", "value": "> 100000", "unit": "µg/mL"}, {"measurement": "half-life", "setting": "[5]", "value": 5.4, "unit": "h"}]}, {"smiles": "O=C(c1ccccc1)c1cccc(/C=c2\\[nH]c(=O)/c(=C/c3ccccn3)[nH]c2=O)c1", "values": [{"measurement": "solubility", "setting": "[2]", "value": "< 0.1", "unit": "µg/mL"}, {"measurement": "Drug metabolism", "setting": "[6]", "value": "Metabolite_Detected"}]}, {"smiles": "O=C(O)CC(C(=O)O)n1cc(CCCC(=O)OCOc2n/c(=C\\c3cccc(C(=O)c4ccccc4)c3)c(=O)[nH]/c2=C\\c2ccccn2)nn1", "note": "(single isomer, unassigned)", "values": [{"measurement": "solubility at 0.25 h", "setting": "[1]", "value": 80000, "unit": "µg/mL"}, {"measurement": "remaining at 48 h", "setting": "[7]", "value": 20, "unit": "%"}, {"measurement": "half-life", "setting": "[5]", "value": 8.7, "unit": "h"}]}, {"smiles": "CC(C)(C)c1[nH]cnc1/C=c1\\[nH]c(=O)/c(=C/c2ccccc2)nc1OCOC(=O)CCCc1cn([C@H](CCC(=O)[O-])C(=O)[O-])nn1.[Na+].[Na+]", "values": [{"measurement": "solubility at 0.25 h", "setting": "[1]", "value": "> 100000", "unit": "µg/mL"}, {"measurement": "half-life", "setting": "[5]", "value": 9, "unit": "h"}]}, {"smiles": "CC(C)(C)c1[nH]cnc1/C=c1\\[nH]c(=O)/c(=C/c2ccccc2)nc1OCOC(=O)CCCc1cn([C@@H]2O[C@H](CO)[C@H](O)[C@H](O)[C@H]2O)nn1", "values": [{"measurement": "solubility at 0.25 h", "setting": "[1]", "value": 7.5, "unit": "µg/mL"}]}, {"smiles": "CC(C)(C)c1[nH]cnc1/C=c1\\[nH]c(=O)/c(=C/c2ccccc2)nc1OCOC(=O)CCCc1cn([C@@H](CO)C(=O)[O-])nn1.[Na+]", "values": [{"measurement": "solubility", "setting": "[2]", "value": 6380, "unit": "µg/mL"}, {"measurement": "half-life", "setting": "[5]", "value": 1, "unit": "h"}]}, {"smiles": "CC(C)(C)c1[nH]cnc1/C=c1\\[nH]c(=O)/c(=C/c2ccccc2)nc1OCOC(=O)CCCc1cn(C[C@H](O)CC(=O)[O-])nn1.[Na+]", "values": [{"measurement": "solubility at 0.25 h", "setting": "[1]", "value": 850, "unit": "µg/mL"}, {"measurement": "half-life", "setting": "[8]", "value": 0.37, "unit": "h"}]}, {"smiles": "CC(C)(C)c1[nH]cnc1/C=c1\\[nH]c(=O)/c(=C/c2ccccc2)nc1OCOC(=O)CCCc1cn([C@@H](CC(=O)[O-])C(=O)[O-])nn1.[Na+].[Na+]", "values": [{"measurement": "solubility at 0.25 h", "setting": "[1]", "value": "> 100000", "unit": "µg/mL"}, {"measurement": "half-life", "setting": "[5]", "value": 12, "unit": "h"}]}, {"smiles": "C=O", "note": "[FORMALDEHYDE]", "values": [{"measurement": "Drug metabolism", "setting": "[3]", "value": "Metabolite_Detected"}]}]}
